In patent US20090143279A1 (priority 2007, published 2009):
Like-named read-outs stand apart in the source and are kept apart here.

Legend:
[1] = tested on: nuOXPHOS transcripts; format: cell-based, mouse
[2] = tested on: reactive oxygen species; format: cell-based, mouse
[3] = tested on: C2C12 myotubes
[4] = tested on: cytochrome c; format: cell-based, mouse
[5] = tested on: mtOXPHOS transcripts; format: cell-based, mouse
[6] = tested on: mitochondrial membrane potential; format: cell-based, mouse
[7] = tested on: cellular dehydrogenase activity
[8] = tested on: OXPHOS gene expression; format: cell-based, mouse
[9] = composite Z-score vs DMSO, Conc 8.66 μM
[10] = composite Z-score vs DMSO, Conc 20 μM
[11] = composite Z-score vs DMSO wells, Conc 20 μM
[12] = 20 μM, composite Z-score vs DMSO
[13] = composite Z-score vs DMSO, Conc 11.16 μM
[14] = composite Z-score vs mock-treated (DMSO) wells, Conc 20 μM

For `O=c1[nH]c2ccccc2n1C1CCN(CCCC(c2ccc(F)cc2)c2ccc(F)cc2)CC1` [pimozide], the nucOX [1, 9] was −0.438, the nucOX [1, 10] was 0.857 and the ROS [2, 9] was 2.196. For the same compound, the ROS [2, 10] was 1.432, the Viability [3, 9] was 0.494 and the Viability [3, 10] was 0.146. The cyt c [4, 9] was −0.531, the cyt c [4, 10] was −0.121 and the mitoOX [5, 9] was −0.648. For the same compound, the mitoOX [5, 10] was 0.386, the ΔΨm [6, 9] was −0.170 and the ΔΨm [6, 10] was −0.381. It also gave an MTT [7, 9] of −0.375, an MTT [7, 10] of −0.447 and a GE-HTS [8, 9] of −0.548. For the same compound, the GE-HTS [8, 10] was 0.722.

In the case of `CC(N/C(=N\C#N)Nc1ccncc1)C(C)(C)C` (stereo not drawn) [pinacidil], the nucOX [1] is reported as 0.038, the nucOX [1, 10] is reported as −0.301 and the ROS [2] is reported as 0.383. The ROS [2, 10] was 0.655, the Viability [3] was −0.477 and the Viability [3, 10] was −0.062. It also gave a cyt c [4] of 0.027, a cyt c [4, 10] of 1.030 and a mitoOX [5] of −0.498. The mitoOX [5, 10] was −0.814, the ΔΨm [6] was −0.614 and the ΔΨm [6, 10] was −0.949. For the same compound, the MTT [7] was −0.889, the MTT [7, 10] was −0.142 and the GE-HTS [8] was −0.146. The GE-HTS [8, 10] was −0.515.

`CCn1cc(C(=O)O)c(=O)c2cnc(N3CCNCC3)nc21` [pipemidic acid] showed a nucOX [1, 11] of 0.264, an ROS [2, 11] of 0.010 and a Viability [3, 11] of −0.716. For the same compound, the cyt c [4] was 0.101, the cyt c [4, 11] was 0.140 and the mitoOX [5, 11] was −0.333. For the same compound, the ΔΨm [6, 11] was −0.736, the MTT [7, 11] was −0.367 and the GE-HTS [8, 11] was 0.045.

`CC[N+]1(C)CCCC(OC(=O)C(O)(c2ccccc2)c2ccccc2)C1` (stereo not drawn) [pipenzolate] showed a nucOX [1, 11] of −0.411, an ROS [2, 11] of 0.166 and a Viability [3, 11] of 0.001. It also gave a cyt c [4] of 0.192, a cyt c [4, 11] of −0.954 and a mitoOX [5, 11] of −0.569. It also gave a ΔΨm [6, 11] of −0.205, an MTT [7, 11] of 0.060 and a GE-HTS [8, 11] of −0.495.

`CCN1CCN(C(=O)N[C@@H](C(=O)N[C@@H]2C(=O)N3[C@@H]2SC(C)(C)[C@@H]3C(=O)O)c2ccccc2)C(=O)C1=O` [piperacillin] showed a nucOX [1, 10] of −0.339, an ROS [2, 10] of 0.645 and a Viability [3, 10] of −0.990. The cyt c [4, 10] was 0.544, the mitoOX [5, 10] was −0.857 and the ΔΨm [6, 10] was −0.150. It also gave an MTT [7, 10] of −1.188 and a GE-HTS [8, 10] of −0.548.

In the case of `O=C(CCBr)N1CCN(C(=O)CCBr)CC1` [pipobroman], the nucOX [1] is reported as −0.918, the ROS [2] is reported as 0.342 and the Viability [3] is reported as −0.792. For the same compound, the cyt c [4] was 0.441, the mitoOX [5] was −1.219 and the ΔΨm [6] was −0.580. For the same compound, the MTT [7] was −1.907 and the GE-HTS [8] was −1.074.

Compound `Nc1ccc(C(=O)[O-])cc1.[K+]` [potassium p-aminobenzoate] has a nucOX [1, 12] of −1.085, an ROS [2, 12] of 0.818 and a Viability [3, 12] of −0.277. For the same compound, the cyt c [4, 12] was 0.519, the mitoOX [5, 12] was −0.673 and the ΔΨm [6, 12] was −0.826. For the same compound, the MTT [7, 12] was −1.445 and the GE-HTS [8, 12] was −1.001.

`C[C@]12C=CC(=O)C=C1CC[C@@H]1[C@@H]2C(=O)C[C@@]2(C)[C@H]1CC[C@]2(O)C(=O)CO` [prednisone] gave a nucOX [1, 11] of −0.177, a nucOX [1, 13] of −0.432 and an ROS [2, 11] of 0.253. For the same compound, the ROS [2, 13] was 0.623, the Viability [3, 11] was −0.474 and the Viability [3, 13] was −1.668. It also gave a cyt c [4, 11] of −0.034, a cyt c [4, 13] of −0.428 and a mitoOX [5, 11] of −0.473. The mitoOX [5, 13] was −0.048, the ΔΨm [6, 11] was 0.258 and the ΔΨm [6, 13] was −0.474. For the same compound, the MTT [7, 11] was −1.054, the MTT [7, 13] was −1.206 and the GE-HTS [8, 11] was −0.290. For the same compound, the GE-HTS [8, 13] was −0.315.

`CC(C)=CCOc1cc2oc(=O)ccc2cc1O` [prenyletin] was tested, and the nucOX [1, 14] was −0.015, the ROS [2, 14] was −0.090 and the Viability [3, 14] was 0.919. For the same compound, the cyt c [4, 14] was 0.150, the mitoOX [5, 14] was 0.282 and the ΔΨm [6, 14] was 0.772. For the same compound, the MTT [7, 14] was −1.166 and the GE-HTS [8, 14] was 0.113.

With `CCCC(C(=O)OCCN(CC)CC)(c1ccccc1)c1ccccc1` [proadifen] the nucOX [1] was −0.414, the nucOX [1, 12] was −0.243 and the ROS [2] was 0.616. It also gave an ROS [2, 12] of 0.678, a Viability [3] of −0.388 and a Viability [3, 12] of −1.715. The cyt c [4] was 0.223, the cyt c [4, 12] was −0.077 and the mitoOX [5] was −0.201. The mitoOX [5, 12] was −0.595, the ΔΨm [6] was −0.557 and the ΔΨm [6, 12] was −0.654. It also gave an MTT [7] of −1.220, an MTT [7, 12] of −1.808 and a GE-HTS [8] of −0.364. The GE-HTS [8, 12] was −0.377.

Work on `CC(C)(Sc1cc(C(C)(C)C)c(O)c(C(C)(C)C)c1)Sc1cc(C(C)(C)C)c(O)c(C(C)(C)C)c1` [probucol] yielded a nucOX [1, 11] of −0.002, an ROS [2, 11] of 0.464 and a Viability [3, 11] of −0.586. It also gave a cyt c [4] of −0.232, a cyt c [4, 11] of −0.180 and a mitoOX [5, 11] of −0.136. For the same compound, the ΔΨm [6, 11] was −0.142, the MTT [7, 11] was −1.114 and the GE-HTS [8, 11] was −0.053.
